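Briefly, cells in 96-well plates were exposed to five compound concentrations for 48 h, and endpoints were estimated by linear interpolation. GI50 = concentration required for 50% inhibition of growth. TGI denotes the concentration required for complete inhibition of growth.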
Legend:
Test in all cases: DTP human tumour cell line panel, 48 h
786-0 renal = tested on: 786-0 renal
A498 renal = tested on: A498 renal
A549 NSCLC = tested on: A549 NSCLC
ACHN renal = tested on: ACHN renal
BT-549 breast = tested on: BT-549 breast
CAKI-1 renal = tested on: CAKI-1 renal
CCRF-CEM leukemia = tested on: CCRF-CEM leukemia
COLO 205 colon = tested on: COLO 205 colon
DU-145 prostate = tested on: DU-145 prostate
EKVX NSCLC = tested on: EKVX NSCLC
HCC-2998 colon = tested on: HCC-2998 colon
HCT-116 colon = tested on: HCT-116 colon
HCT-15 colon = tested on: HCT-15 colon
HL-60(TB) leukemia = tested on: HL-60(TB) leukemia
HOP-62 NSCLC = tested on: HOP-62 NSCLC
HOP-92 NSCLC = tested on: HOP-92 NSCLC
HS 578T breast = tested on: HS 578T breast
HT29 colon = tested on: HT29 colon
IGROV1 ovarian = tested on: IGROV1 ovarian
K-562 leukemia = tested on: K-562 leukemia
KM12 colon = tested on: KM12 colon
LOX IMVI melanoma = tested on: LOX IMVI melanoma
M14 melanoma = tested on: M14 melanoma
MALME-3M melanoma = tested on: MALME-3M melanoma
MCF7 breast = tested on: MCF7 breast
MDA-MB-231 breast = tested on: MDA-MB-231 breast
MDA-MB-435 = tested on: MDA-MB-435
MDA-MB-468 breast = tested on: MDA-MB-468 breast
MOLT-4 leukemia = tested on: MOLT-4 leukemia
NCI-H226 lung = tested on: NCI-H226 lung
NCI-H23 lung = tested on: NCI-H23 lung
NCI-H460 lung = tested on: NCI-H460 lung
NCI-H522 lung = tested on: NCI-H522 lung
OVCAR-3 ovarian = tested on: OVCAR-3 ovarian
OVCAR-4 ovarian = tested on: OVCAR-4 ovarian
OVCAR-5 ovarian = tested on: OVCAR-5 ovarian
OVCAR-8 ovarian = tested on: OVCAR-8 ovarian
PC-3 prostate = tested on: PC-3 prostate
RPMI-8226 leukemia = tested on: RPMI-8226 leukemia
RXF 393 renal = tested on: RXF 393 renal
SF-268 CNS = tested on: SF-268 CNS
SF-295 CNS = tested on: SF-295 CNS
SF-539 CNS = tested on: SF-539 CNS
SK-MEL-2 melanoma = tested on: SK-MEL-2 melanoma
SK-MEL-28 melanoma = tested on: SK-MEL-28 melanoma
SK-MEL-5 melanoma = tested on: SK-MEL-5 melanoma
SK-OV-3 ovarian = tested on: SK-OV-3 ovarian
SN12C renal = tested on: SN12C renal
SNB-19 CNS = tested on: SNB-19 CNS
SR leukemia = tested on: SR leukemia
SW-620 colon = tested on: SW-620 colon
T-47D breast = tested on: T-47D breast
TK-10 renal = tested on: TK-10 renal
U251 CNS = tested on: U251 CNS
UACC-257 melanoma = tested on: UACC-257 melanoma
UACC-62 melanoma = tested on: UACC-62 melanoma
UO-31 renal = tested on: UO-31 renal

For `Cn1cc(-c2cc(N)n3nc(-c4c[nH]c5ccc(Cl)cc45)cc3n2)c2cc(Br)cnc21`, the GI50 (786-0 renal) was 1.64 µM, the TGI (786-0 renal) was 3.06 µM and the GI50 (A498 renal) was 13.1 µM. For the same compound, the TGI (A498 renal) was 29.4 µM, the GI50 (A549 NSCLC) was 2.13 µM and the TGI (A549 NSCLC) was 6.32 µM. For the same compound, the GI50 (ACHN renal) was 1.87 µM, the TGI (ACHN renal) was 3.92 µM and the GI50 (BT-549 breast) was 13.8 µM. It also gave a TGI (BT-549 breast) of 28.6 µM, a GI50 (CAKI-1 renal) of 3.07 µM and a TGI (CAKI-1 renal) of 16.7 µM. It also gave a GI50 (CCRF-CEM leukemia) of 3.32 µM, a TGI (CCRF-CEM leukemia) of 10.7 µM and a GI50 (COLO 205 colon) of 2.83 µM. For the same compound, the TGI (COLO 205 colon) was 6.04 µM, the GI50 (DU-145 prostate) was 3.18 µM and the TGI (DU-145 prostate) was 9.77 µM. For the same compound, the GI50 (EKVX NSCLC) was 3.04 µM, the TGI (EKVX NSCLC) was 14.1 µM and the GI50 (HCC-2998 colon) was 1.76 µM. It also gave a TGI (HCC-2998 colon) of 3.36 µM, a GI50 (HCT-116 colon) of 2.01 µM and a TGI (HCT-116 colon) of 4.03 µM. It also gave a GI50 (HCT-15 colon) of 1.61 µM, a TGI (HCT-15 colon) of 3.02 µM and a GI50 (HL-60(TB) leukemia) of 2.06 µM. For the same compound, the TGI (HL-60(TB) leukemia) was 5.15 µM, the GI50 (HOP-62 NSCLC) was 4.41 µM and the TGI (HOP-62 NSCLC) was 27.6 µM. The GI50 (HOP-92 NSCLC) was 2.16 µM, the TGI (HOP-92 NSCLC) was 4.58 µM and the GI50 (HS 578T breast) was 12.6 µM. For the same compound, the TGI (HS 578T breast) was 55.5 µM, the GI50 (HT29 colon) was 1.93 µM and the TGI (HT29 colon) was 3.84 µM. It also gave a GI50 (IGROV1 ovarian) of 1.94 µM, a TGI (IGROV1 ovarian) of 4.47 µM and a GI50 (K-562 leukemia) of 2.4 µM. For the same compound, the TGI (K-562 leukemia) was 6.27 µM, the GI50 (KM12 colon) was 2.17 µM and the TGI (KM12 colon) was 4.87 µM. The GI50 (LOX IMVI melanoma) was 1.95 µM, the TGI (LOX IMVI melanoma) was 3.44 µM and the GI50 (M14 melanoma) was 2.37 µM. For the same compound, the TGI (M14 melanoma) was 5.88 µM, the GI50 (MALME-3M melanoma) was 2.18 µM and the TGI (MALME-3M melanoma) was 5.19 µM. The GI50 (MCF7 breast) was 1.77 µM, the TGI (MCF7 breast) was 3.31 µM and the GI50 (MDA-MB-231 breast) was 1.98 µM. The TGI (MDA-MB-231 breast) was 4.27 µM, the GI50 (MDA-MB-435) was 2.06 µM and the TGI (MDA-MB-435) was 4.48 µM. For the same compound, the GI50 (MDA-MB-468 breast) was 1.32 µM, the TGI (MDA-MB-468 breast) was 2.73 µM and the GI50 (MOLT-4 leukemia) was 1.76 µM. The TGI (MOLT-4 leukemia) was 5.68 µM, the GI50 (NCI-H226 lung) was 2.23 µM and the TGI (NCI-H226 lung) was 11.5 µM. It also gave a GI50 (NCI-H23 lung) of 2.63 µM, a TGI (NCI-H23 lung) of 7.83 µM and a GI50 (NCI-H460 lung) of 1.92 µM. The TGI (NCI-H460 lung) was 3.81 µM, the GI50 (NCI-H522 lung) was 1.9 µM and the TGI (NCI-H522 lung) was 3.88 µM. The GI50 (OVCAR-3 ovarian) was 3.23 µM, the TGI (OVCAR-3 ovarian) was 9.96 µM and the GI50 (OVCAR-4 ovarian) was 2.98 µM. For the same compound, the TGI (OVCAR-4 ovarian) was 9.01 µM, the GI50 (OVCAR-5 ovarian) was 2.01 µM and the TGI (OVCAR-5 ovarian) was 6.48 µM. For the same compound, the GI50 (OVCAR-8 ovarian) was 2.29 µM, the TGI (OVCAR-8 ovarian) was 5.22 µM and the GI50 (PC-3 prostate) was 2.27 µM. For the same compound, the TGI (PC-3 prostate) was 5.79 µM, the GI50 (RPMI-8226 leukemia) was 3.88 µM and the TGI (RPMI-8226 leukemia) was 34 µM. The GI50 (RXF 393 renal) was 1.72 µM, the TGI (RXF 393 renal) was 3.32 µM and the GI50 (SF-268 CNS) was 7.39 µM. It also gave a TGI (SF-268 CNS) of 43.9 µM, a GI50 (SF-295 CNS) of 1.84 µM and a TGI (SF-295 CNS) of 4.04 µM. The GI50 (SF-539 CNS) was 1.66 µM, the TGI (SF-539 CNS) was 3.22 µM and the GI50 (SK-MEL-2 melanoma) was 2.63 µM. For the same compound, the TGI (SK-MEL-2 melanoma) was 7.51 µM, the GI50 (SK-MEL-28 melanoma) was 2.1 µM and the TGI (SK-MEL-28 melanoma) was 4.97 µM. It also gave a GI50 (SK-MEL-5 melanoma) of 4.35 µM, a TGI (SK-MEL-5 melanoma) of 17 µM and a GI50 (SK-OV-3 ovarian) of 18.6 µM. The TGI (SK-OV-3 ovarian) was 72.1 µM, the GI50 (SN12C renal) was 10.1 µM and the TGI (SN12C renal) was 26.4 µM. It also gave a GI50 (SNB-19 CNS) of 3.25 µM, a TGI (SNB-19 CNS) of 11.5 µM and a GI50 (SR leukemia) of 2.27 µM. The TGI (SR leukemia) was greater than 100 µM, the GI50 (SW-620 colon) was 1.82 µM and the TGI (SW-620 colon) was 3.5 µM. The GI50 (T-47D breast) was 2.38 µM, the TGI (T-47D breast) was 7.3 µM and the GI50 (TK-10 renal) was 2.27 µM. For the same compound, the TGI (TK-10 renal) was 7.2 µM, the GI50 (U251 CNS) was 1.81 µM and the TGI (U251 CNS) was 3.39 µM. It also gave a GI50 (UACC-257 melanoma) of 12.5 µM, a TGI (UACC-257 melanoma) of 25.5 µM and a GI50 (UACC-62 melanoma) of 1.69 µM. The TGI (UACC-62 melanoma) was 3.6 µM, the GI50 (UO-31 renal) was 2.93 µM and the TGI (UO-31 renal) was 12.1 µM.

— PubChem BioAssay (NCI)
